Data reported in patent publication US20260035355A1, “COMPOUND, PHARMACEUTICAL COMPOSITION COMPRISING SAME, AND USE THEREOF” (SHENZHEN ZHONGGE BIOLOGICAL TECHNOLOGY CO., LTD., priority 2022, published 2026).

How the values were obtained:
[1] = target: T1, eIF2B (Homo sapiens, UniProt P49770+Q9UI10); assay: ATF4-Luc assay (ATF4 luciferase reporter, thapsigargin-induced stress); assay type: cell-based; conditions: HEK293T/17-ATF4 uORF-Luc-Puro monoclonal cells, 50 nM thapsigargin, incubated for 6 hours
T1 construct: endogenous in cells; host or cells: HEK293T/17-ATF4 uORF-Luc-Puro monoclonal cells
Text: The ATF4 luciferase reporter plasmid consists of two parts, i.e., the 5′ untranslated region sequence of the ATF4 gene and the luciferase coding sequence. Specifically, the ATF4 5′ untranslated region sequence (NCBI database number BC022088.2) containing two upstream open reading frames (uORFs), and the firefly luciferase encoding gene were cloned into the pLVX-Puro vector (YouBio, VT1465). The packaging plasmids of lentivirus were psPAX2 (YouBio, VT1444) and pMD2.G (YouBio, VT1443). 650,000 HEK293T cells were seeded per well of a 6-well plate and cultured overnight in a 5% CO2 incubator. The cells were transfected with the packaged lentivirus for 48 hours and then centrifuged, and the supernatant was discarded. The medium was replaced and changed to the DMEM complete medium containing 0.8 μg/ml puromycin, and the cells were resuspended and then cultured. After one week of cell screening with puromycin, the surviving cells were HEK293T-ATF4 uORF-Luc-Puro polyclonal cells. 200 polyclonal cells were taken and subjected to limiting gradient dilution by using a 96-well plate, so as to obtain monoclonal cells.
The specific method for screening the monoclonal cells involves: placing the 200 polyclonal cells in well A1 of the 96-well plate; step one: performing gradient dilution from columns A1 to H1 at a ratio of 1:2; step two: performing gradient dilution from rows A to H, with each row from wells 1 to 12 at a ratio of 1:2; marking the wells with a theoretical cell number less than 0.5 and observing one by one under a microscope; marking the wells with only one cell; and culturing the cells for two weeks to obtain the monoclonal cells.
By using this cell line and the cold fluorescence readings, the translational regulation of ATF4 can be detected, and the activity of eIF2B activated by the compounds can be tested.
The specific experimental process is as follows: 6000 HEK293T/17-ATF4 uORF-Luc-Puro monoclonal cells were plated in a 384-well plate and allowed to adhere overnight. The test compounds were dissolved in DMSO and diluted to 10 different concentrations, which were respectively added together with 50 nM thapsigargin to the cell culture medium and incubated for 6 hours, wherein the thapsigargin was used to cause cellular stress and upregulate the protein translation of ATF4. Six hours after the addition, the cells were lysed using the One-Glo Luciferase Assay Kit (Promega #E6120), and then the cold fluorescence values were read using the LUM program of the EnVision 2104 plate reader.
EC50 was calculated based on the fluorescence values at 9 concentrations (0.1 nM, 0.3 nM, 1.0 nM, 3.0 nM, 10.0 nM, 30.0 nM, 100.0 nM, 300.0 nM and 1000.0 nM) of each compound and recorded in Table 1.
The ATF4 reporter expression was calculated as follows:
ATF4 reporter expression=(ave_sample-ave_vc)/(ave_pc-ave_vc)
where ave_vc represents the average signal value of negative controls, ave_pc represents the average signal value of positive controls, and ave_sample represents the average signal value of samples.
The dose-response curves were fitted, and the EC50 values were calculated.
The nonlinear regression log(inhibitor) vs. response—variable slope (four parameters) method of GraphPad 9 software was used to fit the corresponding relationship between the ATF4 reporter expression and the compound concentration.
The X-axis represents the log value of the compound concentration; and the Y-axis represents the ATF4 reporter expression.

[2] = Evaluation of cell membrane permeability; assay type: in vitro ADME; conditions: 10 μM, 120 minutes; for efflux ratio at 120 min, 10 μM: read-out: Efflux Ratio (Papp B to A/Papp A to B); for Papp A→B at 120 min, 10 μM / Papp B→A at 120 min, 10 μM: transport buffer (HBSS+BSA), 37° C.
Procedure: (§1) The test compounds were diluted from 10 mM stock solutions to a concentration of 10 μM using the transport buffer (HBSS+BSA) and applied to the apical or basolateral side of the cell monolayer. After the incubation at 37° C., 5% CO2 and 95% relative humidity for 120 minutes, the permeability of the test compounds in the A to B direction or the B to A direction was dually determined. In addition, the efflux ratio (Papp B to A/Papp A to B) of each compound was determined. The test substances and reference substances were quantitatively analyzed by the LC-MS/MS method based on the analyte/IS peak area ratio.

[3] = tested on: cell monolayer; assay: Evaluation of cell membrane permeability; assay type: in vitro ADME
Procedure: as §1

[4] = Pharmacokinetic evaluation in mice; assay type: in vivo
Procedure: The test compounds were dissolved in vehicles to prepare clear solutions or homogeneous suspensions. Three mice were placed in each group and received an intravenous (IV) administration via the tail vein at 1 mg/kg and an oral (PO) administration at 30 mg/kg. Blood samples were collected at 0.083 h, 0.25 h, 0.5 h, 1 h, 2 h, 4 h, 8 h, and 24 h after the intravenous administration, and at 0.25 h, 0.5 h, 1 h, 2 h, 4 h, 6 h, 8 h, and 24 h after the oral administration. Plasma samples were centrifuged, and the supernatant was collected to prepare samples, which were then quantitatively analyzed by LC/MS/MS.

[5] = tested on: healthy participants; conditions: Phase 1, healthy participants; cited from earlier work
[6] = tested on: model animals; conditions: oral administration for three days; cited from earlier work
[7] = tested on: mouse models; conditions: cited from earlier work

T1 sequence (P49770 whole entry): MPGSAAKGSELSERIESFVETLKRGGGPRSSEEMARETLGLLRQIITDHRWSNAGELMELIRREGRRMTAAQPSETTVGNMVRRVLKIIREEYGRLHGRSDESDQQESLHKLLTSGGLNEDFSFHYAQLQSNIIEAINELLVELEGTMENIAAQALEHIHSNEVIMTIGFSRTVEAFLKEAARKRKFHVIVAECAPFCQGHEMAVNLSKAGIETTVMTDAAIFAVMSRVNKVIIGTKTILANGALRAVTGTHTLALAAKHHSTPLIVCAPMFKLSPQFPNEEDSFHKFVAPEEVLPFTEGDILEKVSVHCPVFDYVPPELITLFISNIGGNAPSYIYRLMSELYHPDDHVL
T1 sequence (Q9UI10 whole entry): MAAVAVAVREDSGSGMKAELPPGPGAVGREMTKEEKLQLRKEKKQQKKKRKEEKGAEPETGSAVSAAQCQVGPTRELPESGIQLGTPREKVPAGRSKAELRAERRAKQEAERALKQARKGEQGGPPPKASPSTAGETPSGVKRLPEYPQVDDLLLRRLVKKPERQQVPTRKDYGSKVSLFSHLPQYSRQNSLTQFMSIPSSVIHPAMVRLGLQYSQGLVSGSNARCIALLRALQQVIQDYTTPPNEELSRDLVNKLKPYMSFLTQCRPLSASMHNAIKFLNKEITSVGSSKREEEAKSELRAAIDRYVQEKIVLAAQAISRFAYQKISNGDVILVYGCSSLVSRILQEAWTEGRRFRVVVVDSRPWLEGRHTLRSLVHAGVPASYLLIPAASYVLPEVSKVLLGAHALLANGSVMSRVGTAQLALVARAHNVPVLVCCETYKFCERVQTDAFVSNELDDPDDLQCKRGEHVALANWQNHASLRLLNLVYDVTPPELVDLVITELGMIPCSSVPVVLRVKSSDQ
T1 sequence (Q14232 whole entry partner): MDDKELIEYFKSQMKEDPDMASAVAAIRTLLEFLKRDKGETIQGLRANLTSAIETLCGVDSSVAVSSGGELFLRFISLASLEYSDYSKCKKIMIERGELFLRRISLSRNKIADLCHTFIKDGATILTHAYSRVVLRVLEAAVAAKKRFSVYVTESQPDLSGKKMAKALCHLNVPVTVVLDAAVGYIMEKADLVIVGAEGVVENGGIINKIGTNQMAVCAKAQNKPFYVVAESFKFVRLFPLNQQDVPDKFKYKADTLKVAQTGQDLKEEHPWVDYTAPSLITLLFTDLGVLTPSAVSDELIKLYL
T1 sequence (Q9NR50 whole entry partner): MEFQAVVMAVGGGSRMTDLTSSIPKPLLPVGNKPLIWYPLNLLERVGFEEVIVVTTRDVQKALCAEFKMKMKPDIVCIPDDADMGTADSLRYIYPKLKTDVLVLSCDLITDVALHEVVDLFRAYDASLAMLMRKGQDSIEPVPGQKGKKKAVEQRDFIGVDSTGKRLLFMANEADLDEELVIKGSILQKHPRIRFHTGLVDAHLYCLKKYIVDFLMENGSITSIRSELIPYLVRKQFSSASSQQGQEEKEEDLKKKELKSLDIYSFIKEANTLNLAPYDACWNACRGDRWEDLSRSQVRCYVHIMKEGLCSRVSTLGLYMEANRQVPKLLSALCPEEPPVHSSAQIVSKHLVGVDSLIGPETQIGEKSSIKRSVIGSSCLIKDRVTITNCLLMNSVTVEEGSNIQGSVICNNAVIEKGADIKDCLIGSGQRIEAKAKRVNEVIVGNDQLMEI
T1 sequence (Q13144 whole entry partner): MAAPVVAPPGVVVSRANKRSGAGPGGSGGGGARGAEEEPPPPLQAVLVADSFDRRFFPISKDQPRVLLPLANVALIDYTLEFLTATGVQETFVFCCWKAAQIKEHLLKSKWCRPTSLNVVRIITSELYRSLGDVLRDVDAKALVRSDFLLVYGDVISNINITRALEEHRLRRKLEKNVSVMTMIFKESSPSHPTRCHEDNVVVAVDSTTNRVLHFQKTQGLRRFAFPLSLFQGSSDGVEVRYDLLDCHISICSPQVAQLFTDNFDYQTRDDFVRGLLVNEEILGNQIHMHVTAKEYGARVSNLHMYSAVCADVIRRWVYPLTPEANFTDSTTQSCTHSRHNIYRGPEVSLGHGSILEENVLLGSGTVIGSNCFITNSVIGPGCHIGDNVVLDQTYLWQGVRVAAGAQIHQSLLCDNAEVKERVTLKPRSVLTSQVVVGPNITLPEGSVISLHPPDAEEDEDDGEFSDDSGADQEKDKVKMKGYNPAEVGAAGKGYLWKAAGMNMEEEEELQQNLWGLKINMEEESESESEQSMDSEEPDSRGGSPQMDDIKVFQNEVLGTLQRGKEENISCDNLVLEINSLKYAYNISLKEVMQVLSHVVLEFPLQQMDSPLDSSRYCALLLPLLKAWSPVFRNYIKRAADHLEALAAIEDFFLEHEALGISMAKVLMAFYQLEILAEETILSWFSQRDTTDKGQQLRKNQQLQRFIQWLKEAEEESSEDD

SMILES | EC50 [1] [nM] | further results
CN1C[C@H](C(=O)N2CC3(CC(NC(=O)COc4ccc(Cl)c(F)c4)CO3)C2)Oc2ccc(Cl)cc21 (stereo partly drawn) [II-14] | > 100 | –
O=C(COc1ccc(Cl)c(F)c1)NC1CC12CCN(NC(=O)[C@H]1CNc3cc(Cl)ccc3O1)CC2 (stereo partly drawn) [I-7] | > 100 | –
CN1C[C@H](C(=O)N2CCC3(CC2)CC(NC(=O)COc2ccc(Cl)c(F)c2)C3)Oc2ccc(Cl)cc21 [IV-15] | > 100 | –
O=C(COc1ccc(Cl)c(F)c1)NC1COC2(C1)CN(C(=O)c1cc3cc(Cl)ccc3o1)C2 (stereo not drawn) [II-12] | 10 to 100 | –
O=C(NC1CC12CCN(NC(=O)c1cc3cc(Cl)ccc3o1)CC2)c1cc2cc(Cl)ccc2o1 (stereo not drawn) [I-10] | 10 to 100 | –
O=C(COc1ccc(Cl)c(F)c1)NC1CC2(C1)CC(c1nnc(N3CC(OC(F)(F)F)C3)o1)C2 (stereo not drawn) [III-1] | < 10 | efflux ratio at 120 min, 10 μM [2]: 1.05; Papp A→B at 120 min, 10 μM [2]: 17.7 ×10⁻⁶ cm/s; Papp B→A at 120 min, 10 μM [2]: 18.6 ×10⁻⁶ cm/s; P-glycoprotein substrate (in words) [3]: not P-glycoprotein substrates; cell membrane permeability (in words) [3]: good cell membrane permeability; pharmacokinetic properties in mice (in words) ([4]; mouse, in vivo): excellent pharmacokinetic properties in mice; AUC(0-inf) ([4]; plasma, mouse IV 1 mg/kg): 2230 ng·h/mL; C0 ([4]; plasma, mouse IV 1 mg/kg): 1340 ng/mL; clearance ([4]; plasma, mouse IV 1 mg/kg): 7.5 mL/min/kg; half-life ([4]; plasma, mouse IV 1 mg/kg): 2.07 h; Vd ([4]; plasma, mouse IV 1 mg/kg, read-out: Vss): 1.18 L/kg; AUC(0-inf) ([4]; plasma, mouse PO 30 mg/kg): 111000 ng·h/mL; Cmax ([4]; plasma, mouse PO 30 mg/kg): 21500 ng/mL; Tmax ([4]; plasma, mouse PO 30 mg/kg): 1.33 h; bioavailability ([4]; plasma, mouse PO 30 mg/kg): 177%; half-life ([4]; plasma, mouse PO 30 mg/kg): 1.93 h
C[C@H]1O[C@@H](O[C@H]2[C@@H](O)C[C@H](O[C@H]3[C@@H](O)C[C@H](O[C@H]4CC[C@@]5(C)[C@H](CC[C@@H]6[C@@H]5C[C@@H](O)[C@]5(C)[C@@H](C7=CC(=O)OC7)CC[C@]65O)C4)O[C@@H]3C)O[C@@H]2C)C[C@H](O)[C@@H]1O [Digoxin] | – | efflux ratio at 120 min, 10 μM [2]: 44.7; Papp A→B at 120 min, 10 μM [2]: 0.25 ×10⁻⁶ cm/s; Papp B→A at 120 min, 10 μM [2]: 11.2 ×10⁻⁶ cm/s
O=C(COc1ccc(Cl)c(F)c1)NC1COC2(C1)CN(C(=O)[C@H]1CNc3cc(Cl)ccc3O1)C2 (stereo partly drawn) [II-13] | > 100 | –
O=C(NC1CC12CCN(C(=O)c1cc3cc(Cl)ccc3o1)CC2)c1cc2cc(Cl)ccc2o1 (stereo not drawn) [I-9] | > 100 | –
O=C(COc1ccc(Cl)c(F)c1)NC1CC2(C1)CC(NC(=O)C1CNc3cc(Cl)ccc3O1)C2 (stereo not drawn) [III-13] | 10 to 100 | –
O=C(COc1ccc(Cl)c(F)c1)NC1CC2(C1)CC(NC(=O)c1cnc(C(F)F)cn1)C2 (stereo not drawn) [III-11] | > 100 | –
O=C(COc1ccc(Cl)c(F)c1)NC1CC2(CCC(c3nnc(N4CC(OC(F)(F)F)C4)o3)CC2)C1 (stereo not drawn) [VI-1] | 10 to 100 | –
O=C(CO[C@H]1C[C@@H](OC(F)(F)F)C1)NC1CC2(CCN(C(=O)COc3ccc(Cl)c(F)c3)CC2)C1 [IV-17] | > 100 | –
O=C(COc1ccc(Cl)cc1)NC12CC(c3nnc([C@H]4C[C@@H](OC(F)(F)F)C4)o3)(C1)C2 [DNL-343] | – | safety and tolerability (in words) [5]: demonstrated its safety and tolerability
O=C(COc1ccc(Cl)c(F)c1)NC1CC12CCN(C(=O)[C@H]1CNc3cc(Cl)ccc3O1)CC2 (stereo partly drawn) [I-3] | > 100 | –
O=C(NC1CC2(CCN(C(=O)[C@@H]3CNc4cc(Cl)ccc4O3)CC2)C1)[C@H]1CNc2cc(Cl)ccc2O1 [IV-18] | 10 to 100 | –
CN1C[C@H](C(=O)NN2CCC3(CC2)CC3NC(=O)COc2ccc(Cl)c(F)c2)Oc2ccc(Cl)cc21 (stereo partly drawn) [I-8] | > 100 | –
O=C(COc1ccc(Cl)c(F)c1)NC1CC2(CCN(C(=O)c3cnc(C(F)F)cn3)CC2)C1 [IV-12] | > 100 | –
O=C(COc1ccc(Cl)c(F)c1)NC1CC2(CCN(C(=O)[C@H]3CNc4cc(Cl)ccc4O3)CC2)C1 [IV-13] | < 10 | –
O=C(COc1ccc(Cl)c(F)c1)NC1CC12CCN(NC(=O)c1cc3cc(Cl)ccc3o1)CC2 (stereo not drawn) [I-6] | > 100 | –
O=C(CO[C@H]1C[C@@H](OC(F)(F)F)C1)NC1CC2(CCN(C(=O)c3cc4cc(Cl)ccc4o3)CC2)C1 [IV-16] | > 100 | –

SMILES | EC50 [1] [nM] | further results
O=C(COc1ccc(Cl)c(F)c1)NC1CC12CCN(C(=O)c1cc3cc(Cl)ccc3o1)CC2 (stereo not drawn) [I-2] | > 100 | –
O=C(COc1ccc(Cl)c(F)c1)NC1CC2(CCN(c3nnc(N4CC(OC(F)(F)F)C4)o3)CC2)C1 [IV-1] | 10 to 100 | –
O=C(COc1ccc(Cl)c(F)c1)NC1COC2(C1)CN(C(=O)c1cnc(C(F)F)cn1)C2 (stereo not drawn) [II-10] | > 100 | –
O=C(COc1ccc(Cl)c(F)c1)NC1CC12CCN(C(=O)c1cnc(C(F)F)cn1)CC2 (stereo not drawn) [I-1] | > 100 | –
CN1C[C@H](C(=O)N2CCC3(CC2)CC3NC(=O)COc2ccc(Cl)c(F)c2)Oc2ccc(Cl)cc21 (stereo partly drawn) [I-4] | > 100 | –
NC(CO)(CO)CO.O=C(COc1ccc(Cl)c(F)c1)NC12CCC(NC(=O)COc3ccc(Cl)c(F)c3)(CC1)[C@@H](OCOP(=O)([O-])O)C2.[Na+] [ABBV-CLS-7262] | – | brain function (in words) [6]: restored to youthful levels
CN1CC(C(=O)NC2CC3(CC(NC(=O)COc4ccc(Cl)c(F)c4)C3)C2)Oc2ccc(Cl)cc21 (stereo not drawn) [III-12] | > 100 | –
O=C(COc1ccc(Cl)cc1)NC1CCC(NC(=O)COc2ccc(Cl)cc2)CC1 (stereo not drawn) [ISRIB] | – | long-term memory (in words) [7]: improve long-term memory
O=C(COc1ccc(Cl)c(F)c1)NC1COC2(C1)CN(C(=O)COc1ccc(Cl)c(F)c1)C2 (stereo not drawn) [II-11] | > 100 | –
O=C(COc1ccc(Cl)c(F)c1)NC1CCC2(CC1)CN(C(=O)c1cnc(C(F)F)cn1)C2 [V-11] | > 100 | –
O=C(COc1ccc(Cl)c(F)c1)NC1CCC2(CC1)CN(C(=O)C1CNc3cc(Cl)ccc3O1)C2 (stereo not drawn) [V-12] | > 100 | –
O=C(COc1ccc(Cl)c(F)c1)NC1CC12CCN(NC(=O)COc1ccc(Cl)c(F)c1)CC2 (stereo not drawn) [I-5] | > 100 | –
O=C(COc1ccc(Cl)c(F)c1)NC1CCC(c2nnc(N3CC(OC(F)(F)F)C3)o2)C2(CC2)C1 (stereo not drawn) [VIII-1] | < 10 | –
O=C(COc1ccc(Cl)c(F)c1)NC1CC2(CCN(C(=O)COc3ccc(Cl)c(F)c3)CC2)C1 [IV-11] | 10 to 100 | –
O=C(COc1ccc(Cl)c(F)c1)NC1CC2(CCN(c3nnc(-c4ccc(Cl)cc4)o3)CC2)C1 [IV-14] | 10 to 100 | –
O=C(COc1ccc(Cl)c(F)c1)NC1CCC2(CC1)CN(C(=O)COc1ccc(Cl)c(F)c1)C2 [V-10] | 10 to 100 | –
CC(C)NCC(O)COc1cccc2ccccc12 (stereo not drawn) [Propranolol] | – | Papp A→B at 120 min, 10 μM [2]: 32.4 ×10⁻⁶ cm/s; Papp B→A at 120 min, 10 μM [2]: 20.1 ×10⁻⁶ cm/s
O=C(COc1ccc(Cl)c(F)c1)NC1CC2(C1)CC(NC(=O)COc1ccc(Cl)c(F)c1)C2 (stereo not drawn) [III-10] | > 100 | –
O=C(NC1CC2(CCN(C(=O)c3cc4cc(Cl)ccc4o3)CC2)C1)c1cc2cc(Cl)ccc2o1 [IV-20] | < 10 | –
O=C(COc1ccc(Cl)c(F)c1)NC1CC2(CCN(C(=O)c3cc4cc(Cl)ccc4o3)CC2)C1 [IV-19] | 10 to 100 | –
